Earlier results on three compounds are cited in patent publication US20030216407A1, “Use of PDE5 inhibitors in the treatment of scarring” (Pfizer Inc., priority 2002, published 2003).

In data set [1] the test system is normal rat kidney fibroblast collagen synthesis. As to conditions: in vitro.
Data set [2] relates to PDE6 against PDE5. As to conditions: more potent against PDE6 than against PDE5.
Data set [3] deals with adult cardiac fibroblasts. As to conditions: substance on its own.

Take `Nc1nc2c(ncn2[C@@H]2O[C@@H]3COP(=O)(O)O[C@H]3[C@H]2O)c(=O)[nH]1` [cGMP]: in data set [1], the “collagen synthesis induced by CTGF” value is “no effect”. On to `CCCOc1ccccc1-c1nc2nn[nH]c2c(=O)[nH]1` [zaprinast], for which the “potency against PDE6 relative to PDE5” value in data set [2] is “five fold”. In data set [3], the “regulating cardiac fibroblast proliferation” value is given as “no effect”. Regarding atrial natriurectic peptide [ANP], the “regulating cardiac fibroblast proliferation” value in data set [3] is listed as “did not on its own regulate”.
